The text below walks through data of patent publication US7259271B2, “Peripherally-selective inhibitors of dopamine-β-hydroxylase and method of their preparation” (Portela & C.A., S.A., priority 2002, dated 2007).

Structures can show the parent of a compound that is named as a salt.

The target in this test is T1, human DβH (Homo sapiens, UniProt P09172).
T1 construct: SK-N-SH cells (ATCC HTB-11), a human neuroblastoma derived cell line, were used as a source of human DβH; host or cells: SK-N-SH cells
T1 sequence (P09172 1-617): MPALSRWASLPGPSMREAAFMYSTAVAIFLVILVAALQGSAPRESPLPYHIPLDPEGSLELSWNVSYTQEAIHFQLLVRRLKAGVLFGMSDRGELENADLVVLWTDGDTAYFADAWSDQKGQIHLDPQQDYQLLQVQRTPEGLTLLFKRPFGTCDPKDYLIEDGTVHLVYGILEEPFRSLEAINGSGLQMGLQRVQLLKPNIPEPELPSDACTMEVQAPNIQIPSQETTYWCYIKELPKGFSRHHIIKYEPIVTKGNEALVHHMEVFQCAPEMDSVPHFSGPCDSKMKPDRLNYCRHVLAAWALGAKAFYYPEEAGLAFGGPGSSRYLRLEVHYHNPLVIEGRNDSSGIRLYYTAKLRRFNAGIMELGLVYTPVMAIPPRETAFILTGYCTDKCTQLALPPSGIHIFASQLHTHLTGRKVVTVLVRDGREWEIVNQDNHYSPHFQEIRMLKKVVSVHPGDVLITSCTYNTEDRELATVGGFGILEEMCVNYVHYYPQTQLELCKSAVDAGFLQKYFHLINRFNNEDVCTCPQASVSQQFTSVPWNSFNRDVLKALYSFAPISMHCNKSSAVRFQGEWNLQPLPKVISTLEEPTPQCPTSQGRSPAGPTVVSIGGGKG
In words: DβH activity (β-hydroxylation of dopamine to noradrenaline) in SK-N-SH cells. The test is classed as cell-based. The note with it: for inhibition of DβH activity (in words): 5 μM, as listed in Table 1; for remaining activity at 5 µM: SK-N-SH, 0.75 h, read-out: DβH activity in SK-N-SH cells, Mean ± SEM. The protocol:
SK-N-SH cells (ATCC HTB-11), a human neuroblastoma derived cell line, were used as a source of human DβH. SK-N-SH cells cultured in 24 well plates were preincubated for 20 min in a reaction medium containing 200 mM sodium acetate, 30 mM N-ethylmaleimide, 5 μM copper sulphate, 0.5 mg/ml catalase aqueous solution, 1 mM pargyline, 10 mM sodium fumarate and 20 mM ascorbic acid. […] During preincubation and incubation, the cells were continuously shaken and maintained at 37° C. The reaction was terminated by the addition of 0.2 M perchloric acid. The acidified samples were stored at 4° C. before injection into the high pressure liquid chromatograph for the assay of noradrenaline.

For `Cl.NCCc1c[nH]c(=S)n1[C@H]1COc2ccccc2C1` [Compound 12, (R)-5-(2-aminoethyl)-1-chroman-3-yl-1,3-dihydroimidazole-2-thione hydrochloride], the “inhibition of DβH activity (in words)” value is reported as “markedly inhibit” and the remaining activity at 5 µM worked out at 3 ± 0.5%.

As for `COc1cc(Cl)c2c(c1)C[C@@H](n1c(CCN)c[nH]c1=S)CO2` [Compound 13, (R)-5-(2-aminoethyl)-1-(6-methoxy-8-chlorochroman-3-yl)-1,3-dihydroimidazole-2-thione hydrochloride], the remaining activity at 5 µM was found to be 94 ± 3.1%.

For the molecule `CC(=O)Nc1ccc2c(c1)C[C@@H](n1c(CCN)c[nH]c1=S)CO2` [Compound 14, (R)-5-(2-aminoethyl)-1-[6-(acetylamino)chroman-3-yl]-1,3-dihydroimidazole-2-thione hydrochloride], the remaining activity at 5 µM was 77.9 ± 2.2%.

For the molecule `NCCc1c[nH]c(=S)n1[C@H]1COc2cc(Cc3ccccc3)c(O)cc2C1` [Compound 15, (R)-5-(2-aminoethyl)-1-(6-hydroxy-7-benzylchroman-3-yl)-1,3-dihydroimidazole-2-thione hydrochloride], the remaining activity at 5 µM is 86.1 ± 2.7%.

Turning to `Cl.NCCc1c[nH]c(=S)n1[C@H]1COc2ccc(O)cc2C1` [Compound 16, (R)-5-(2-aminoethyl)-1-(6-hydroxychroman-3-yl)-1,3-dihydroimidazole-2-thione hydrochloride], the “inhibition of DβH activity (in words)” value is “markedly inhibit” and the remaining activity at 5 µM was 0%.

In the case of `NCCc1c[nH]c(=S)n1[C@H]1COc2c(cccc2[N+](=O)[O-])C1` [Compound 17, (R)-5-(2-aminoethyl)-1-(8-nitrochroman-3-yl)-1,3-dihydroimidazole-2-thione hydrochloride], the remaining activity at 5 µM came out at 53.2 ± 3.9%.

For `NCCc1c[nH]c(=S)n1[C@H]1COc2ccc([N+](=O)[O-])cc2C1` [Compound 18, (R)-5-(2-aminoethyl)-1-(6-nitrochroman-3-yl)-1,3-dihydroimidazole-2-thione hydrochloride], the remaining activity at 5 µM turned out to be 94.8 ± 1.2%.

As for `COc1cccc2c1OC[C@H](n1c(CCN)c[nH]c1=S)C2.Cl` [Compound 19, (R)-5-(2-aminoethyl)-1-(8-methoxychroman-3-yl)-1,3-dihydroimidazole-2-thione hydrochloride], the “inhibition of DβH activity (in words)” value is listed as “markedly inhibit” and the remaining activity at 5 µM stood at 6.9 ± 0.5%.

As for `NCCc1c[nH]c(=S)n1[C@H]1CCc2ccccc2C1` [Compound 20, (S)-5-(2-aminoethyl)-1-(1,2,3,4-tetrahydronaphthalen-2-yl)-1,3-dihydroimidazole-2-thione hydrochloride], the remaining activity at 5 µM turned out to be 16.8 ± 4.8%.

In the case of `NCCc1c[nH]c(=S)n1[C@H]1COc2c(O)cccc2C1` [Compound 21, (R)-5-(2-aminoethyl)-1-(8-hydroxychroman-3-yl)-1,3-dihydroimidazole-2-thione hydrochloride], the remaining activity at 5 µM came out at 125 ± 6.5%.

With `NCc1c[nH]c(=S)n1[C@H]1COc2ccc(O)cc2C1` [Compound 22, (R)-5-aminomethyl-1-(6-hydroxychroman-3-yl)-1,3-dihydroimidazole-2-thione hydrochloride], the remaining activity at 5 µM was determined as 17.8 ± 2.1%.

`COc1ccc2c(c1)C[C@@H](n1c(CCN)c[nH]c1=S)CO2` [Compound 23, (R)-5-(2-aminoethyl)-1-(6-methoxychroman-3-yl)-1,3-dihydroimidazole-2-thione hydrochloride]: the remaining activity at 5 µM was 54.5 ± 9.9%.

`Cl.NCc1c[nH]c(=S)n1[C@H]1COc2ccccc2C1` [Compound 24, (R)-5-aminomethyl-1-chroman-3-yl-1,3-dihydroimidazole-2-thione hydrochloride]: the “inhibition of DβH activity (in words)” value was “markedly inhibit” and the remaining activity at 5 µM is 0%.

As for `COc1ccc2c(c1)C[C@@H](n1c(CCNCc3ccccc3)c[nH]c1=S)CO2` [Compound 25, (R)-5-(2-Benzylaminoethyl)-1-(6-methoxychroman-3-yl)-1,3-dihydroimidazole-2-thione hydrochloride], the remaining activity at 5 µM stood at 66 ± 4.5%.
